Molecules are shown by their SMILES.

For experiment [1], the system named is HDAC isoforms. Particulars: cited from earlier work; for isoform selectivity: prior work.
In experiment [2] the test system is HeLa cell lysates as the source of all HDAC proteins. The experiment is described as follows: Global HDAC inhibition with HeLa cell lysates. In kind it is biochemical. Particulars: mean and standard error of at least three independent trials.
Experiment [3] has as its system HDAC6 (substrate acetyl-α-tubulin, AcTub). Kind of experiment: In cellulo selectivity, western blot of acetyl-α-tubulin in U937 cells. Type of experiment: cell-based. Particulars: SAHA 5 µM, 1e 10–40 µM, compared to DMSO control.
In experiment [4] the test system is Class I HDAC (HDAC1, 2, and 3) (substrate acetyl-histone 3, AcH3). The experiment is described as follows: In cellulo selectivity, western blot of acetyl-histone H3 in U937 cells. Type of experiment: cell-based. As to conditions: SAHA 5 µM, 1e 10–40 µM, compared to DMSO control. For orientation: In western blotting, separated proteins are transferred to a membrane and probed.

Experiment [5] deals with T1, HDAC6 (Homo sapiens, UniProt Q9UBN7).
T1 sequence (Q9UBN7 1-1215): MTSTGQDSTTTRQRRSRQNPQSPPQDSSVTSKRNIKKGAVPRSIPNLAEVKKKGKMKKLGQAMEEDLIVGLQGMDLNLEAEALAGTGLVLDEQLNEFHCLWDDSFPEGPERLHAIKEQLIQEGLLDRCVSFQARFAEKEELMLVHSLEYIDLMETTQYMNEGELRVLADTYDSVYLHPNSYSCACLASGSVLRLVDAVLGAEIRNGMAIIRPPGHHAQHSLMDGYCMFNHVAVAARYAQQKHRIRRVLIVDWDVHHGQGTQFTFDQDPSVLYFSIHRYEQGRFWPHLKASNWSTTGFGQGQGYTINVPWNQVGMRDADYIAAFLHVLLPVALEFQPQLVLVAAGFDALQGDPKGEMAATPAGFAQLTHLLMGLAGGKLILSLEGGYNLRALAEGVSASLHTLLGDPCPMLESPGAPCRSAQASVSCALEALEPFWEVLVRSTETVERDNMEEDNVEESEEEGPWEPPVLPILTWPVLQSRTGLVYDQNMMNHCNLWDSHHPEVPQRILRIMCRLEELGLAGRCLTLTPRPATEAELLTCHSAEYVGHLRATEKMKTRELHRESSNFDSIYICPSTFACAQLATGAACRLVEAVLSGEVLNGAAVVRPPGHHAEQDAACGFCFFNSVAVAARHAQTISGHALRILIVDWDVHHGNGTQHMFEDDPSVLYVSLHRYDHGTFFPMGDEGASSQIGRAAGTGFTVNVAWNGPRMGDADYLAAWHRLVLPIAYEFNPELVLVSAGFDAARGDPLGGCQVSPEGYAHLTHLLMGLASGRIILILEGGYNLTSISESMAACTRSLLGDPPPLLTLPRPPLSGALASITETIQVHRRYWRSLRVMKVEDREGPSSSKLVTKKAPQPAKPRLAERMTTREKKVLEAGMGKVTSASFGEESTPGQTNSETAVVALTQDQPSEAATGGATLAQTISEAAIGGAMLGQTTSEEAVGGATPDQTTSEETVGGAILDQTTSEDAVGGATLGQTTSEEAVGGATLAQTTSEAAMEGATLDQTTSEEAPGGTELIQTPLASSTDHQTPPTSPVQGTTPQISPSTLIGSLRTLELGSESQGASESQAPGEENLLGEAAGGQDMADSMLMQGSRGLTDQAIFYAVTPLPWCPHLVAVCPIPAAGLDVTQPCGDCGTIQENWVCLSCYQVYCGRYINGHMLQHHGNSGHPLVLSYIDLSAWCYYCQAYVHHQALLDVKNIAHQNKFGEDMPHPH
Kind of experiment: ELISA-based HDAC activity assay, HDAC6. As to conditions: from IC50 values (Tables 2 and S6). Type of experiment: biochemical. In general terms: ELISA stands for enzyme-linked immunosorbent assay.

On to `CCCCC(CCCCC(=O)NO)CC(=O)Nc1ccccc1` (stereo not shown) [C6-butyl SAHA], for which, in experiment [1], the isoform selectivity result was “inhibited HDAC1 and 6 over HDAC3”.
The IC50 is the midpoint of a concentration-inhibition curve. In turn, `CC(CCCC(=O)NO)CCC(=O)Nc1ccccc1` (stereo not shown) [Compound 1a, C5-methyl SAHA] had an IC50 in experiment [2] of 100 ± 10 nM.
Regarding `O=C(CCCC(CCC(=O)Nc1ccccc1)Cc1ccccc1)NO` (stereo not shown) [Compound 1e, C5-benzyl SAHA], the “levels of acetyl-α-tubulin (AcTub)” value in experiment [3] was “dose dependent selective increase”. The “levels of acetyl-histone H3 (AcH3)” value in experiment [4] is given as “increased levels”.
With `CCC(CCCCC(=O)Nc1ccccc1)CC(=O)NO` (stereo not shown) [C3-ethyl SAHA], in experiment [1], the isoform selectivity result was “HDAC6 selectivity”.
Take `CCCCCCC(CCCC(=O)NO)CCC(=O)Nc1ccccc1` (stereo not shown) [Compound 1c, C5-n-hexyl SAHA]: the “selectivity for HDAC6 and HDAC8 over HDAC1, 2, and 3” value in experiment [5] is listed as 5- to 7 fold.
With `CCCCCCC(CCCCCC(=O)Nc1ccccc1)C(=O)NO` (stereo not shown) [C2-hexyl SAHA], in experiment [1] (previously reported), the “selectivity for HDAC6 and 8 over HDAC1, 2, and 3” value is reported as 49- to 300 fold. Also, in experiment [1], the isoform selectivity entry is given as “dual HDAC6/8 selectivity”. Moreover, the IC50 in experiment [1] (read-out: IC50 values against HDAC6 and 8, previously reported) was 600 to 2000 nM.
Turning to `CCCCC(CCCC(=O)NO)CCC(=O)Nc1ccccc1` (stereo not shown) [Compound 1b, C5-n-butyl SAHA], the “selectivity for HDAC6 and HDAC8 over HDAC1, 2, and 3” value in experiment [5] is 3- to 5 fold.

The values are drawn from publication PMC5747257 (Bioorganic & medicinal chemistry letters, 2017).
